Reference: US11021470B2, “2-substituted quinazoline compounds comprising a substituted heterocyclic group and methods of use thereof” (Araxes Pharma LLC, priority 2015, dated 2021)

How the values were obtained:
[1] = Whole blood stability, dog; type: in vitro ADME; conditions: 37° C.; for half-life at 5 µM: read-out: Whole Blood Stability (T1/2) (converted)
Method: (§1) Representative compounds of the invention were tested for their whole blood stability as follows:
(§2) Test compounds were prepared as a 500 μM stock solution in DMSO (Adding 10 μl of 10 mM DMSO stock solution to 190 μl of 100% DMSO). Whole blood was thawed on ice. A whole blood plate was prepared by adding 460 μl of the whole blood (different species as needed) to a 96-well in ml deep well plate. The whole blood plate was preincubated at 37° C. for 10 min. 4 μl of compound solution and 396 μl of whole blood was added to the plate and mixed thoroughly. Each sample was aliquoted (30 μl) to the incubation plate (cluster tubes) and quenched at time zero with ice-cold 100% ACN, and the incubation plates were added to the 37° C. incubator (200 μl).
(§3) The time zero sample was maintained at 4° C. until centrifuged. All other samples were quench at different time points (1, 2, 4 hr), vortexed for 30 seconds and centrifuged at 3500 rpm for 15 min at 4° C. 30 μl of supernatant was added to 170 μl 0.1% FA aqueous solution and the sample was analyzes by LC/MS/MS.

[2] = molecular target: T1, KRAS G12C 1-169, his-tagged protein, GDP-loaded (Homo sapiens, UniProt P01116, G12C); experiment: KRAS G12C covalent binding (% modification) by mass spectrometry, ten or three minute incubation; conditions: covalent binding to KRAS G12C after a ten minute incubation period
T1 construct: KRAS G12C 1-169, his-tagged protein, GDP-loaded
T1 sequence (P01116 1-169 isoform P01116-2 G12C): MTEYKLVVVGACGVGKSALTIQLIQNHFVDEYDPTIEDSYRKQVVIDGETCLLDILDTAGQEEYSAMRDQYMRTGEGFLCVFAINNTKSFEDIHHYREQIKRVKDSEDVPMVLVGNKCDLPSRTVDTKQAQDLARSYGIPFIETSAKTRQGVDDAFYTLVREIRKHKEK
Summary of the method: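 GDP-loaded protein in 20 mM Hepes, 150 mM NaCl, 1 mM MgCl2 was incubated with compound (final 100, 30 or 10 μM; 2% DMSO) at room temperature, then quenched with formic acid. Intact-protein LC-MS with charge-envelope deconvolution gave masses and intensities of modified and unmodified species.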

[3] = Whole blood stability, monkey; type: in vitro ADME; conditions: 37° C.; for half-life at 5 µM: read-out: Whole Blood Stability (T1/2) (converted)
Method: as §1, §2, §3

| half-life at 5 µM [1] [h] | half-life at 5 µM [3] [h] | Whole Blood Stability (T1/2) [1] [h] | Whole Blood Stability (T1/2) [3] [h] | SMILES | Binding % [2] |
| --- | --- | --- | --- | --- | --- |
| 5.1 | 6.8 |  |  | C=CC(=O)N1C[C@H](C)N(c2nc(N3CC(N(C)C)C3)nc3c(F)c(-c4c(O)cccc4F)c(Cl)cc23)C[C@H]1C (atropisomer, axis not shown) [Compound 52, 1-((2R,5S)-4-((S)-6-chloro-2-(3-(dimethylamino)azetidin-1-yl)-8-fluoro-7-(2-fluoro-6-hydroxyphenyl)quinazolin-4-yl)-2,5-dimethylpiperazin-1-yl)prop-2-en-1-one] | +++ (+++ indicates binding activity greater than 90%) |
| 2.3 | 1.45 |  |  | C=CC(=O)N1CCN(c2nc(N3CC(N(C)C)C3)nc3c(F)c(-c4c(O)cccc4F)c(Cl)cc23)C[C@H]1C (atropisomer, axis not shown) [Compound 60, 1-((R)-4-((S)-6-chloro-2-(3-(dimethylamino)azetidin-1-yl)-8-fluoro-7-(2-fluoro-6-hydroxyphenyl)quinazolin-4-yl)-2-methylpiperazin-1-yl)prop-2-en-1-one] |  |
| 1.3 | 1.2 |  |  | C=CC(=O)N1CCN(c2nc(OCCN3CC(F)(F)C3)nc3c(F)c(-c4c(O)cccc4F)c(Cl)cc23)C[C@H]1C (atropisomer, axis not shown) [Compound 63, 1-((R)-4-((S)-6-chloro-2-(2-(3,3-difluoroazetidin-1-yl)ethoxy)-8-fluoro-7-(2-fluoro-6-hydroxyphenyl)quinazolin-4-yl)-2-methylpiperazin-1-yl)prop-2-en-1-one] |  |
| 3 | 1.3 |  |  | C=CC(=O)N1CCN(c2nc(N3CC(N(C)C)C3)nc3c(F)c(-c4c(C)ccc5cn[nH]c45)c(Cl)cc23)C[C@H]1C (atropisomer, axis not shown) [Compound 70, 1-((R)-4-((R)-6-chloro-2-(3-(dimethylamino)azetidin-1-yl)-8-fluoro-7-(6-methyl-1H-indazol-7-yl)quinazolin-4-yl)-2-methylpiperazin-1-yl)prop-2-en-1-one] |  |
|  |  | 5.95 | 3.9 | C=CC(=O)N1C[C@H](C)N(c2nc(N3CC(N(C)C)C3)nc3c(F)c(-c4c(C)ccc5cn[nH]c45)c(Cl)cc23)C[C@H]1C (atropisomer, axis not shown) [Compound 72, 1-((2R,5S)-4-((R)-6-chloro-2-(3-(dimethylamino)azetidin-1-yl)-8-fluoro-7-(6-methyl-1H-indazol-7-yl)quinazolin-4-yl)-2,5-dimethylpiperazin-1-yl)prop-2-en-1-one] | +++ (+++ indicates binding activity greater than 90%) |
| 4.8 | 3.9 |  |  | C=CC(=O)N1C[C@H](C)N(c2nc(OCCN(CC)CC)nc3c(F)c(-c4c(O)cccc4F)c(Cl)cc23)C[C@H]1C (atropisomer, axis not shown) [Compound 75, 1-((2R,5S)-4-((S)-6-chloro-2-(2-(diethylamino)ethoxy)-8-fluoro-7-(2-fluoro-6-hydroxyphenyl)quinazolin-4-yl)-2,5-dimethylpiperazin-1-yl)prop-2-en-1-one] |  |
| 0.6 | 0.1 |  |  | C=CC(=O)N1CCN(c2nc(OCCN(CC)CC)nc3c(F)c(-c4c(O)cccc4F)c(Cl)cc23)CC1 [A, reference compound] |  |
| 0.7 | 0.1 |  |  | C=CC(=O)N1CCN(c2nc(N3CC(N(C)C)C3)nc3c(F)c(-c4c(O)cccc4F)c(Cl)cc23)CC1 [B, reference compound] |  |
| 0.6 | 0.2 |  |  | C=CC(=O)N1CCN(c2nc(OCCN3CC(F)(F)C3)nc3c(F)c(-c4c(O)cccc4F)c(Cl)cc23)CC1 [C, reference compound] |  |
| 3 |  |  | 7.8 | C=CC(=O)N1C[C@H](C)N(c2nc(OCCN3CC(F)(F)C3)nc3c(F)c(-c4c(O)cccc4F)c(Cl)cc23)C[C@H]1C [Compound 38, 1-((2R,5S)-4-(6-chloro-2-(2-(3,3-difluoroazetidin-1-yl)ethoxy)-8-fluoro-7-(2-fluoro-6-hydroxyphenyl)quinazolin-4-yl)-2,5-dimethylpiperazin-1-yl)prop-2-en-1-one] | +++ (+++ indicates binding activity greater than 90%) |
| 1.6 | 1 |  |  | C=CC(=O)N1[C@H](C)CN(c2nc(N3CC(N(C)C)C3)nc3c(F)c(-c4c(O)cccc4F)c(Cl)cc23)C[C@@H]1C [Compound 68, 1-((2R,6S)-4-((R)-6-chloro-2-(3-(dimethylamino)azetidin-1-yl)-8-fluoro-7-(2-fluoro-6-hydroxyphenyl)quinazolin-4-yl)-2,6-dimethylpiperazin-1-yl)prop-2-en-1-one] |  |
